Laboratory results from PMC3265452 (PLoS Neglected Tropical Diseases, 2012).
Structures can show the parent of a compound that is named as a salt. Where two headings read alike, the source gives them in different places.

Biological target: AaDOP2 (Aedes aegypti, UniProt H6D5H2)
Test: AaDOP2 antagonist screen of the LOPAC1280 library (HEK-CRELuc-Aadop2 cells, luminescence)
Type: cell-based
[1] = 10 µM compound, 300 nM dopamine, 2 hr, hit = compound effect <20

AaDOP2, sequence (H6D5H2 1-476): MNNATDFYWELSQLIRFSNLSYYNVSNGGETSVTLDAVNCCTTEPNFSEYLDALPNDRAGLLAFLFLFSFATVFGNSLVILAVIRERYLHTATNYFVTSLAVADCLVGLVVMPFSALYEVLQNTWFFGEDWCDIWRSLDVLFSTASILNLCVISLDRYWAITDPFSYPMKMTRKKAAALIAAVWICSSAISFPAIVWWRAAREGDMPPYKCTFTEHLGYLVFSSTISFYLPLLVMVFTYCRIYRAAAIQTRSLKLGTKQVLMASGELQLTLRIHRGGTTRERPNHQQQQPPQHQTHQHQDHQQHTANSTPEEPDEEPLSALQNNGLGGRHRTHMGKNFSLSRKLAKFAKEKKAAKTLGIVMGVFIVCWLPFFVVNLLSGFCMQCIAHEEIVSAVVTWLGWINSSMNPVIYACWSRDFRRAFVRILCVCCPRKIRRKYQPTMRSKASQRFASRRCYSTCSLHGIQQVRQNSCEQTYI

Compound | Compound effect (percent receptor signaling in presence of test compound, relative lux units relative to the SCH23390 control) | Compound effect (percent receptor signaling in presence of test compound, relative lux units relative to the SCH23390 control) [1] [%]
N[C@@H](Cc1ccc(N(CCCl)CCCl)cc1)C(=O)O [Compound 744, Melphalan] | 102 | –
COc1ccc2[nH]cc(CCN(C)C)c2c1.O=C(O)C(=O)O [Compound 745, 5-Methoxy DMT oxalate] | 104 | –
CC(C)NCC(O)c1cc(O)cc(O)c1.CC(C)NCC(O)c1cc(O)cc(O)c1.O=S(=O)(O)O (stereo not shown) [Compound 746, Metaproterenol hemisulfate] | – | 111
CC[C@H](C)C(=O)O[C@H]1CCC=C2C=C[C@H](C)[C@H](CC[C@@H]3C[C@@H](O)CC(=O)O3)[C@H]21 [Compound 748, Mevastatin] | 106 | –
COCc1nc2c([nH]1)c(=O)n(C)c(=O)n2CC(C)C [Compound 749, 8-Methoxymethyl-3-isobutyl-1-methylxanthine] | 107 | –
CC(C)c1ccc2c(c1)c(SC(C)(C)C)c(CC(C)(C)C(=O)O)n2Cc1ccc(Cl)cc1 [Compound 750, MK-886] | 65 | –
Cc1cccc(C)c1OCC(C)N.Cl (stereo not shown) [Compound 751, Mexiletene hydrochloride] | – | 105
CC[C@@H](CO)NC(=O)[C@@H]1C=C2c3cccc4[nH]cc(c34)C[C@H]2N(C)C1 [Compound 752, Methylergonovine maleate] | 107 | –
CCOC(=O)[N-]c1cn(N2CCOCC2)n[o+]1 [Compound 753, Molsidomine] | 98 | –
Cc1nnc2ccc(-c3cccc(C(F)(F)F)c3)nn12 [Compound 754, 3-Methyl-6-(3-[trifluoromethyl]phenyl)-1,2,4-triazolo[4,3-b]pyridazine] | 87 | –
NC(=O)c1ncn([C@@H]2O[C@H](CO)[C@@H](O)[C@H]2O)c1O [Compound 755, Mizoribine] | 94 | –
CSC(=N)N.CSC(=N)N.O=S(=O)(O)O [Compound 756, S-Methylisothiourea hemisulfate] | – | 99
CC[N+](CC)(CC)CCOc1ccc(/C=C/c2ccccc2)cc1 [Compound 757, MG 624] | 89 | –
CN[C@H](CC(=O)O)C(=O)O [Compound 758, N-Methyl-D-aspartic acid] | 97 | –
CCCCCCCCCCCCCCCCOCC(COCC(F)(F)F)OP(=O)(O)OC (stereo not shown) [Compound 760, MJ33] | 77 | –
CN1C[C@H](CNC(=O)OCc2ccccc2)C[C@@H]2c3cccc4c3c(cn4C)C[C@H]21 [Compound 761, Metergoline] | 33 | –
C#CCN(C)CCCOc1ccc(Cl)cc1Cl [Compound 763, Clorgyline hydrochloride] | 96 | –
CNc1ncnc2c1ncn2[C@H]1C[C@H](OP(=O)(O)O)[C@@H](COP(=O)(O)O)O1 [Compound 764, MRS 2179] | 105 | –
Cc1cnc(NC(=O)C2=C(O)c3ccccc3S(=O)(=O)N2C)s1 [Compound 765, Meloxicam sodium] | 115 | –

Compound | Compound effect (percent receptor signaling in presence of test compound, relative lux units relative to the SCH23390 control) | Compound effect (percent receptor signaling in presence of test compound, relative lux units relative to the SCH23390 control) [1] [%]
O=c1c(O)c(-c2ccc(O)cc2O)oc2cc(O)cc(O)c12 [Compound 766, Morin] | 117 | –
Nc1cc(N2CCCCC2)nc(N)[n+]1[O-] [Compound 767, Minoxidil] | 110 | –
COc1cc(CCN)ccc1O.Cl [Compound 768, 3-Methoxy-4-hydroxyphenethylamine hydrochloride] | 116 | –
Cc1ccc(Cl)c(Nc2ccccc2C(=O)O)c1Cl [Compound 769, Meclofenamic acid sodium] | 107 | –
Cc1[nH]c(=O)c(C#N)cc1-c1ccncc1 [Compound 770, Milrinone] | 104 | –
Cl.Cl.Cn1cnc(CCN)c1 [Compound 772, 1-Methylhistamine dihydrochloride] | 94 | –
CC(=O)Oc1cc(C(C)C)c(OCCN(C)C)cc1C [Compound 773, Moxisylyte hydrochloride] | 33 | –
CSC(N)=NCCC[C@H](N)C(=O)O [Compound 774, S-Methyl-L-thiocitrulline acetate] | 97 | –
COc1ccc2[nH]cc(CCNC(C)=O)c2c1 [Compound 775, Melatonin] | 104 | –
Cc1cccc(C#Cc2ccccc2)n1.Cl [Compound 778, 6-Methyl-2-(phenylethynyl)pyridine hydrochloride] | 74 | –
COCC(=O)O[C@]1(CCN(C)CCCc2nc3ccccc3[nH]2)CCc2cc(F)ccc2[C@@H]1C(C)C [Compound 779, Mibefradil dihydrochloride] | 93 | –
CNc1ncnc2c1ncn2[C@@H]1O[C@H](CO)[C@@H](O)[C@H]1O [Compound 780, N6-Methyladenosine] | 80 | –
C[C@](N)(CCP(=O)(O)O)C(=O)O.Cl [Compound 781, (S)-MAP4 hydrochloride] | – | 100
Cc1ccccc1/C=C/C1=NCCN1 [Compound 783, Metrazoline oxalate] | 91 | –
CCCn1c(=O)c2[nH]c(-c3ccc(OCC(=O)Nc4ccc(C#N)cc4)cc3)nc2n(CCC)c1=O [Compound 785, MRS 1754] | 98 | –
COc1cc2c(cc1O)CC[C@@H]1[C@@H]2CC[C@]2(C)[C@@H](O)CC[C@@H]12 [Compound 786, 2-methoxyestradiol] | 99 | –
Cl.NCCS [Compound 787, Cysteamine hydrochloride] | – | 94
Nc1ncnc2c1ncn2[C@@H]1O[C@H](COP(=O)(O)CP(=O)(O)OP(=O)([O-])[O-])[C@H](O)C1O.[Li+].[Li+] (stereo partly drawn) [Compound 788, alpha,beta-Methylene adenosine 5'-triphosphate dilithium] | 97 | –
